Results as given in ChEMBL document CHEMBL1145673, “Assay method for antihepatotoxic activity using galactosamine-induced cytotoxicity in primary-cultured hepatocytes” (J Nat Prod, 1983).
Active and inactive are the calls of the source. The calls are words filed in the database; no cut-off is given here.

Tests used:
Hepatocyte [1] = assay: Antihepatotoxic activity against 1.5 hrs galactosamine pretreatment-induced cytotoxicity in Wistar rat hepatocytes assessed as glutamic-pyruvic transaminase activity at 0.01 mg/ml after 30 hrs relative to control; type: functional
Hepatocyte [2] = assay: Antihepatotoxic activity against 1.5 hrs galactosamine pretreatment-induced cytotoxicity in Wistar rat hepatocytes assessed as glutamic-pyruvic transaminase activity at 0.1 mg/ml after 30 hrs relative to control; type: functional
Hepatocyte [3] = assay: Antihepatotoxic activity against 1.5 hrs galactosamine pretreatment-induced cytotoxicity in Wistar rat hepatocytes assessed as glutamic-pyruvic transaminase activity at 1 mg/ml after 30 hrs relative to control; type: functional
Hepatocyte [4] = assay: Cytotoxicity in Wistar rat hepatocytes assessed as glutamic-pyruvic transaminase activity at 0.01 mg/ml after 30 hrs; type: cell-based
Hepatocyte [5] = assay: Cytotoxicity in Wistar rat hepatocytes assessed as glutamic-pyruvic transaminase activity at 0.1 mg/ml after 30 hrs; type: cell-based
Hepatocyte [6] = assay: Cytotoxicity in Wistar rat hepatocytes assessed as glutamic-pyruvic transaminase activity at 1 mg/ml after 30 hrs; type: cell-based
Hepatocyte [7] = assay: Effect on 1.5 hrs galactosamine pretreatment-induced cytotoxicity in Wistar rat hepatocytes assessed as glutamic-pyruvic transaminase activity at 1 uM; type: functional
Hepatocyte [8] = assay: Effect on 1.5 hrs galactosamine pretreatment-induced cytotoxicity in Wistar rat hepatocytes at 1 uM; type: functional, cell-based

| SMILES | Activity (Hepatocyte [1]) | Activity (Hepatocyte [2]) | Activity (Hepatocyte [3]) | Activity (Hepatocyte [4]) | Activity (Hepatocyte [5]) | Activity (Hepatocyte [6]) | Activity (Hepatocyte [7]) | Activity (Hepatocyte [8]) |
| --- | --- | --- | --- | --- | --- | --- | --- | --- |
| O=C(/C=C/c1ccccc1)OC[C@H]1O[C@@H](O[C@@H]2OC=C[C@H]3[C@H](O)[C@@H]4O[C@]4(CO)[C@@H]23)[C@H](O)[C@@H](O)[C@@H]1O [PICROSIDE I] | 96% | 122% | 111% | 24 IU/L | 50 IU/L | 131 IU/L |  |  |
| CC1(C)[C@@H](O[C@H]2O[C@H](C(=O)O)[C@@H](O)[C@H](O)[C@H]2O[C@@H]2O[C@H](C(=O)O)[C@@H](O)[C@H](O)[C@H]2O)CC[C@]2(C)[C@H]3C(=O)C=C4[C@@H]5C[C@@](C)(C(=O)O)CC[C@]5(C)CC[C@@]4(C)[C@]3(C)CC[C@@H]12 [GLYCYRRHIZIN] | 103% | 100% | 24% | 24 IU/L | 59 IU/L | 21 IU/L |  |  |
| CC1(C)[C@@H](O)CC[C@]2(C)[C@H]3C(=O)C=C4[C@@H]5C[C@@](C)(C(=O)O)CC[C@]5(C)CC[C@@]4(C)[C@]3(C)CC[C@@H]12 [ENOXOLONE] |  | 58% | 27% | 26 IU/L | 16 IU/L | 42 IU/L |  |  |
| O=C(/C=C/c1ccc(O)c(O)c1)O[C@@H]1C[C@@](OC(=O)/C=C/c2ccc(O)c(O)c2)(C(=O)O)C[C@@H](O)[C@@H]1O [CYNARIN] | 95% | 84% | 48% | 20 IU/L | 27 IU/L | 51 IU/L |  |  |
| CSCC[C@H](N)C(=O)O [METHIONINE] | 106% | 113% | 122% | 24 IU/L | 28 IU/L | 25 IU/L |  |  |
| COc1cc(C2Oc3cc([C@H]4Oc5cc(O)cc(O)c5C(=O)[C@@H]4O)ccc3OC2CO)ccc1O (some centres undefined) [SILIBININ] | 106% | 103% | 66% | 29 IU/L | 157 IU/L | 93 IU/L |  |  |
| COc1cc(C(=O)O[C@H]2[C@@H]3C=CO[C@@H](O[C@@H]4O[C@H](CO)[C@@H](O)[C@H](O)[C@H]4O)[C@@H]3[C@@]3(CO)O[C@@H]23)ccc1O [PICROSIDE II] | 103% | 101% | 78% | 27 IU/L | 28 IU/L | 40 IU/L |  |  |
| C[C@@H]1C[C@H]2[C@@H]3CCC4=CC(=O)C=C[C@]4(C)[C@@]3(F)[C@@H](O)C[C@]2(C)[C@@]1(O)C(=O)CO [DEXAMETHASONE] |  |  |  |  |  |  | 96 IU/L | inactive |
| COc1cc([C@@H]2c3cc4c(cc3C[C@H]3COC(=O)[C@@H]32)OCO4)cc(OC)c1OC [DESOXYPODOPHYLLOTOXIN] | 93% | 50% | 92% | 43 IU/L | 35 IU/L | 137 IU/L |  |  |
